Results published in US9375013B2, “Herbicidal composition” (ISHIHARA SANGYO KAISHA, LTD., priority 2013, dated 2016).

Assays:
Assay type in all cases: in vivo
[1] = system: velvetleaf (Abutilon theophrasti MEDIC.); assay: Test Example 14: pot soil treatment, growth inhibition of velvetleaf; details: dose 200 g/ha, 21st day after treatment, read-out: Growth inhibition rate (%) of velvetleaf, Measured value
Description: (§1) On the 14th day after treatment, the state of growth of the summergrass was visually observed to determine the growth inhibition rate in accordance with the following evaluation standard. The growth inhibition rate (%) (measured value) and the growth inhibition rate (%) (calculated value) calculated by the Colby's formula are shown in Table 1. Growth inhibition rate (%)=0 (equivalent to the non-treated area) to 100 (complete kill) Upland field soil was put into a 1/160,000 ha pot, and seeds of velvetleaf (Abutilon theophrasti MEDIC.) were sown. On the next day, predetermined amounts of flazasulfuron and hexazinone were diluted with water (in an amount corresponding to 300 L/ha), and applied for soil treatment by a small sprayer. On the 21st day after treatment, the state of growth of the velvetleaf was visually observed to determine the growth inhibition rate. The growth inhibition rate (%) (measured value) and the growth inhibition rate (%) calculated in the same manner as in Test Example 1 are shown in Table 14.

[2] = system: shattercane (Sorghum bicolor (L.) Moench.); assay: Test Example 6: pot soil treatment, growth inhibition of shattercane; details: dose 100 g/ha, 22nd day after treatment, read-out: Growth inhibition rate (%) of shattercane, Measured value
Description: On the 14th day after treatment, the state of growth of the summergrass was visually observed to determine the growth inhibition rate in accordance with the following evaluation standard. The growth inhibition rate (%) (measured value) and the growth inhibition rate (%) (calculated value) calculated by the Colby's formula are shown in Table 1. Growth inhibition rate (%)=0 (equivalent to the non-treated area) to 100 (complete kill)
Upland field soil was put into a 1/160,000 ha pot, and seeds of shattercane (Sorghum bicolor (L.) Moench.) were sown. On the next day, predetermined amounts of flazasulfuron and hexazinone were diluted with water (in an amount corresponding to 300 L/ha), and applied for soil treatment by a small sprayer.
On the 22nd day after treatment, the state of growth of the shattercane was visually observed to determine the growth inhibition rate. The growth inhibition rate (%) (measured value) and the growth inhibition rate (%) calculated in the same manner as in Test Example 1 are shown in Table 6.

[3] = system: ivy-leaved morningglory (Ipomoea hederacea (L.) Jacq.); assay: Test Example 2: pot soil treatment, growth inhibition of ivy-leaved morningglory; details: 22nd day after treatment, read-out: Growth inhibition rate (%) of ivy-leaved morningglory, Measured value
Description: as §1, with “ivy-leaved morningglory (Ipomoea hederacea (L.) Jacq.)” for “velvetleaf (Abutilon theophrasti MEDIC.)”, “22nd” for “21st”, “ivy-leaved morningglory” for “velvetleaf”, “2.” for “14.”

[4] = system: barnyardgrass (Echinochloa crus-galli L); assay: Test Example 9: pot soil treatment, growth inhibition of barnyardgrass; details: dose 100 g/ha, 21st day after treatment, read-out: Growth inhibition rate (%) of barnyardgrass, Measured value
Description: as §1, with “barnyardgrass (Echinochloa crus-galli L)” for “velvetleaf (Abutilon theophrasti MEDIC.)”, “barnyardgrass” for “velvetleaf”, “9.” for “14.”

[5] = system: field bindweed (Convolvulus arvensis L.); assay: Test Example 5: pot soil treatment, growth inhibition of field bindweed; details: dose 300 g/ha, 22nd day after treatment, read-out: Growth inhibition rate (%) of field bindweed, Measured value
Description: as §1, with “field bindweed (Convolvulus arvensis L.)” for “velvetleaf (Abutilon theophrasti MEDIC.)”, “22nd” for “21st”, “field bindweed” for “velvetleaf”, “5.” for “14.”

[6] = system: persian speedwell (Veronica persica Poiret.); assay: Test Example 10: pot soil treatment, growth inhibition of persian speedwell; details: dose 100 g/ha, 21st day after treatment, read-out: Growth inhibition rate (%) of persian speedwell, Measured value
[7] = system: common ragweed (Ambrosia artemisiifolia L.); assay: Test Example 11: pot soil treatment, growth inhibition of common ragweed; details: dose 150 g/ha, 21st day after treatment, read-out: Growth inhibition rate (%) of common ragweed, Measured value
Description: as §1, with “common ragweed (Ambrosia artemisiifolia L.)” for “velvetleaf (Abutilon theophrasti MEDIC.)”, “imazapic” for “hexazinone”, “common ragweed” for “velvetleaf”, “11.” for “14.”

[8] = system: persian speedwell (Veronica persica Poir.); assay: Test Example 8: pot soil treatment, growth inhibition of persian speedwell; details: 21st day after treatment, read-out: Growth inhibition rate (%) of persian speedwell, Measured value
[9] = system: summergrass (Digitaria ciliaris (Retz.) Koeler); assay: Test Example 1: pot soil treatment, growth inhibition of summergrass; details: dose 150 g/ha, 14th day after treatment, read-out: Growth inhibition rate (%) of summergrass, Measured value
Experimental: Upland field soil was put into a 1/160,000 ha pot, and seeds of summergrass (Digitaria ciliaris (Retz.) Koeler) were sown. On the next day, predetermined amounts of flazasulfuron and imazapic were diluted with water (in an amount corresponding to 300 L/ha), and applied for soil treatment by a small sprayer. On the 14th day after treatment, the state of growth of the summergrass was visually observed to determine the growth inhibition rate in accordance with the following evaluation standard. The growth inhibition rate (%) (measured value) and the growth inhibition rate (%) (calculated value) calculated by the Colby's formula are shown in Table 1. Growth inhibition rate (%)=0 (equivalent to the non-treated area) to 100 (complete kill)

[10] = system: common lespedeza (Lespedeza striata (Thunb.) Hook. et Arn.); assay: Test Example 12: pot soil treatment, growth inhibition of common lespedeza; details: Kummerowia striata, dose 50 g/ha, 21st day after treatment, read-out: Growth inhibition rate (%) of common lespedeza, Measured value
Description: as §1, with “common lespedeza (Lespedeza striata (Thunb.) Hook. et Arn.)” for “velvetleaf (Abutilon theophrasti MEDIC.)”, “imazapic” for “hexazinone”, “common lespedeza” for “velvetleaf”, “12.” for “14.”

[11] = system: field bindweed (Convolvulus arvensis L.); assay: Test Example 15: pot soil treatment, growth inhibition of field bindweed; details: 21st day after treatment, read-out: Growth inhibition rate (%) of field bindweed, Measured value
Description: as §1, with “field bindweed (Convolvulus arvensis L.)” for “velvetleaf (Abutilon theophrasti MEDIC.)”, “flazasulfuron, mesotrione” for “flazasulfuron”, “imazapic” for “hexazinone”, “field bindweed” for “velvetleaf”, “15.” for “14.”

[12] = system: velvetleaf (Abutilon theophrasti MEDIC.); assay: Test Example 13: pot soil treatment, growth inhibition of velvetleaf; details: dose 50 g/ha, 21st day after treatment, read-out: Growth inhibition rate (%) of velvetleaf, Measured value
[13] = system: wild oat (Avena fatua L.); assay: Test Example 3: pot soil treatment, growth inhibition of wild oat; details: 22nd day after treatment, read-out: Growth inhibition rate (%) of wild oat, Measured value
Description: as §1, with “wild oat (Avena fatua L.)” for “velvetleaf (Abutilon theophrasti MEDIC.)”, “flazasulfuron, mesotrione” for “flazasulfuron”, “imazapic” for “hexazinone”, “22nd” for “21st”, “wild oat” for “velvetleaf”, “3.” for “14.”

[14] = system: guinea grass (Panicum maximum Jacq.); assay: Test Example 4: pot soil treatment, growth inhibition of guinea grass; details: Megathyrsus maximus, dose 200 g/ha, 22nd day after treatment, read-out: Growth inhibition rate (%) of guinea grass, Measured value
Description: as §1, with “guinea grass (Panicum maximum Jacq.)” for “velvetleaf (Abutilon theophrasti MEDIC.)”, “mesotrione” for “hexazinone”, “22nd” for “21st”, “guinea grass” for “velvetleaf”, “4.” for “14.”

[15] = system: rostrate sesbania(Sesbania rostrata Bremek. & Oberm.); assay: Test Example 7: pot soil treatment, growth inhibition of rostrate sesbania; details: 22nd day after treatment, read-out: Growth inhibition rate (%) of rostrate sesbania, Measured value

Work on `CN(C)c1nc(=O)n(C2CCCCC2)c(=O)n1C` [Hexazinone, hexazinone] yielded an inhibition at 200 g/ha [1] of 30%, an inhibition at 100 g/ha [2] of 0% and an inhibition at 100 g/ha ([3]; dose 100 g/ha) of 0%. The inhibition at 200 g/ha ([3]; dose 200 g/ha) was 30%, the inhibition at 300 g/ha ([3]; dose 300 g/ha) was 40% and the inhibition at 100 g/ha [4] was 0%. It also gave an inhibition at 300 g/ha [5] of 15% and an inhibition at 100 g/ha [6] of 85%.

Compound `Cc1cnc(C2=NC(=O)C(C)(C(C)C)N2)c(C(=O)O)c1` (stereo not drawn) [Imazapic, imazapic] has an inhibition at 150 g/ha [7] of 60%, an inhibition at 50 g/ha [8] of 50% and an inhibition at 150 g/ha [9] of 50%. For the same compound, the inhibition at 50 g/ha [10] was 0%, the inhibition at 150 g/ha ([11]; dose 150 g/ha) was 15% and the inhibition at 50 g/ha [12] was 30%. The inhibition at 100 g/ha ([13]; dose 100 g/ha) was 40% and the inhibition at 150 g/ha ([13]; dose 150 g/ha) was 60%.

With `CS(=O)(=O)c1ccc(C(=O)C2C(=O)CCCC2=O)c([N+](=O)[O-])c1` [Mesotrione, mesotrione] the inhibition at 200 g/ha [14] was 0%, the inhibition at 50 g/ha [15] was 15% and the inhibition at 200 g/ha ([11]; dose 200 g/ha) was 60%. For the same compound, the inhibition at 50 g/ha ([13]; dose 50 g/ha) was 40% and the inhibition at 200 g/ha ([13]; dose 200 g/ha) was 0%.
